Experimental data: patent EP3120851A1, “4-AMINO-6-(2,6-DICHLOROPHENYL)-8-METHYL-2-(PHENYLAMINO)-PYRIDO[2,3-D]PYRIMIDIN-7(8H)-ONE FOR TREATMENT OF SOLID CANCERS” (Pangaea Biotech S.L., priority 2015, dated 2017)

Tests used:
[1] = biological target: T1, RAF1 Y340D/Y341D (untagged) (Homo sapiens, UniProt P04049, Y340D/Y341D); assay: radiometric protein kinase assay (33PanQinase Activity Assay); assay type: biochemical; details: singlicate, read-out: residual activity
T1 construct: purchased ProQinase (panel service); host or cells: Sf9 insect cells or E. coli
T1 sequence (P04049 whole entry Y340D/Y341D): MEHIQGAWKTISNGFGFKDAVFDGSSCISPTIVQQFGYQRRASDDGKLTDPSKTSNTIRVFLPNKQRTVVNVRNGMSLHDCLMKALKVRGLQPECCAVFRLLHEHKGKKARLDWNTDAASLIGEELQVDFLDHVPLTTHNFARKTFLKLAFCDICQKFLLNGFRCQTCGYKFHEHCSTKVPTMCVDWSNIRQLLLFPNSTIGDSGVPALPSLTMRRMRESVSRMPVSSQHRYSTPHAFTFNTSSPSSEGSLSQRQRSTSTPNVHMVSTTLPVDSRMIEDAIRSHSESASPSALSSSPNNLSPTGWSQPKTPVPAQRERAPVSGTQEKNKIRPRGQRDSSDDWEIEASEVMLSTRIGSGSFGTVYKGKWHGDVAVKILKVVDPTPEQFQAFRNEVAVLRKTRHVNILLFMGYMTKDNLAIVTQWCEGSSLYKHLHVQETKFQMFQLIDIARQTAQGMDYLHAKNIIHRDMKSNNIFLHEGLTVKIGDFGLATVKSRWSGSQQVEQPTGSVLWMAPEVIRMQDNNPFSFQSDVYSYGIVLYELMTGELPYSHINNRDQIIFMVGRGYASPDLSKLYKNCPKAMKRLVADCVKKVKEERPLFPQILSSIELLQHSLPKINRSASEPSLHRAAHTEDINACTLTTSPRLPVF
Procedure: (§1) In a first experiment, the kinase inhibition profile of the compound of formula (1) was evaluated at Proqinase (http://www.proqinase.com) by measuring residual activity values at a concentration of 10 µM of the test compound in singlicate in front of the following kinases: ABL2, EPHA3, CSF1-R, DDR2 wt, DDR2 N456 S, EGF-R d746-750, EGF-R d747-752/P753S, EGF-R G719C, EGF-R G719S, EGF-R L858R, EGF-R L861Q, EGF-R wt, EPHA1, EPHA2, EPHB1, ERBB4, LCK, MINK1, RAF1 Y340D/Y341D (untagged), RIPK2, STK17A. In a second experiment, the kinase inhibition profile of the compound of formula (1) was evaluated at Proqinase (http://www.proqinase.com) by measuring residual activity values at a concentration of 0.5 and 10 µM of the test compound in singlicate in front of a panel of 300 kinases using the following protocol:
(§2) The compounds were dissolved to 1 x 10^-03 M stock solutions in 100% DMSO. Subsequently, 100 µl of each stock solution were transferred into wells A3-F12 of a microtiter plate ("master plate"). Wells A1-F2 were filled with 100 µl 100% DMSO as controls. 5 x 10 µl of the master plate were aliquoted into 5 copy plates, which were stored at -20° Celsius until use. For the testing of each group of up to 8 kinases, one copy plate was used.
(§3) In the process, 90 µl H2O were added to each well of a copy plate. To minimize precipitation, the H2O was added to each well only a few minutes before the transfer of the compound solutions into the assay plates. The plate was shaken thoroughly, resulting in a "compound dilution plate" with a compound concentration of 1 x 10^-04 M/10 % DMSO. This plate was used for the transfer of 5 µl compound solution into the assay plates. The final volume of the assay was 50 µl. All compounds were tested at 1 x 10^-05 M in singlicate. The final DMSO concentration in the reaction cocktails was 1 % in all cases. The compound dilution plates were disposed at the end of each working day.
(§4) A radiometric protein kinase assay (^33PanQinase® Activity Assay) was used for measuring the kinase activity of the corresponding protein kinases. All kinase assays were performed in 96-well FlashPlatesTM from Perkin Elmer (Boston, MA, USA) in a 50 µl reaction volume. The reaction cocktail was pipetted in 4 steps in the following order: • 10 µl of non-radioactive ATP solution (in H2O) • 25 µl of assay buffer/ [γ-33P]-ATP mixture • 5 µl of test sample in 10% DMSO • 10 µl of enzyme/substrate mixture
(§5) The protein kinase reaction cocktails were incubated at 30°C for 60 minutes. The reaction was stopped with 50 µl of 2 % (v/v) H3PO4, plates were aspirated and washed two times with 200 µl 0.9 % (w/v) NaCl. All assays were performed with a BeckmanCoulter Biomek 2000/SL robotic system. Incorporation of ^33Pi (counting of "cpm") was determined with a microplate scintillation counter (Microbeta, Wallac).
(§6) All protein kinase assays were performed with a BeckmanCoulter Core robotic system.
(§7) All protein kinases provided by ProQinase were expressed in Sf9 insect cells or in E.coli as recombinant GST-fusion proteins or His-tagged proteins. All kinases were produced from human cDNAs and purified by either GSH-affinity chromatography or immobilized metal. Affinity tags were removed from a number of kinases during purification. The purity of the protein kinases was examined by SDS-PAGE/Coomassie staining, the identity was checked by mass spectroscopy.
(§8) Kinases from external vendors (CAR = Carna Biosciences Inc.; INV = Life Technologies (Invitrogen Corporation); MIL = Merck-Millipore (Millipore Corporation)) were expressed, purified and quality-controlled by virtue of the vendors readings.
(§9) For each kinase, the median value of the cpm of six wells of column 1 of each assay plate was defined as "low control" (n=6). This value reflects unspecific binding of radioactivity to the plate in the absence of a protein kinase but in the presence of the substrate. […]

[2] = biological target: T2, DDR2 wt (Homo sapiens, UniProt Q16832); assay: as above; assay type: biochemical; details: singlicate, read-out: residual activity
T2 construct: GST or His (not specified per kinase); purchased ProQinase (panel service); host or cells: Sf9 insect cells or E. coli
T2 sequence (Q16832 22-855): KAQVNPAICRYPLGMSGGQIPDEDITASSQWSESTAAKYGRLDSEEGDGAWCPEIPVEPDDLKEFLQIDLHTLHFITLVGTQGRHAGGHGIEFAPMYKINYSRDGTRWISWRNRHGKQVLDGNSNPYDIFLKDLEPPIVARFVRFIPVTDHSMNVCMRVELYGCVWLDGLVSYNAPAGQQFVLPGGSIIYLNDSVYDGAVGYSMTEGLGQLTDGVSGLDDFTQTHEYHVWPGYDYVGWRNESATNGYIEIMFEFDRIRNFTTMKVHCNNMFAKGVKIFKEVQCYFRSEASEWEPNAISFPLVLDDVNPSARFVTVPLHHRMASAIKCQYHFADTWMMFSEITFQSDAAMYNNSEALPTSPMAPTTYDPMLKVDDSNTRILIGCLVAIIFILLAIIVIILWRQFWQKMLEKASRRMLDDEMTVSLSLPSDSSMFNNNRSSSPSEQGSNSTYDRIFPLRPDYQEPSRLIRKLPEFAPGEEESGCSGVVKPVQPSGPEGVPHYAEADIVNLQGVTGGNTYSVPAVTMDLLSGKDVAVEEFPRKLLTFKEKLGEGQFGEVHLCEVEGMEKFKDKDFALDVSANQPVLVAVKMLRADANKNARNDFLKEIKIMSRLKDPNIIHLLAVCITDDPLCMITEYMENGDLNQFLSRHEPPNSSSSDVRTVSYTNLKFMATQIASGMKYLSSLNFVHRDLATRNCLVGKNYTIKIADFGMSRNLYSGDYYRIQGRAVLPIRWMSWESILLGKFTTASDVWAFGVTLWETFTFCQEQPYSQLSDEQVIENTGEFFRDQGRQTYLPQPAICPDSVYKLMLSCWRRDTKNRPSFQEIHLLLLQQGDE
Procedure: as §1, §2, §3, §4, §5, §6, §7, §8, §9

[3] = biological target: T3, EGF-R L861Q (Homo sapiens, UniProt P00533, L861Q); assay: as above; assay type: biochemical; details: singlicate, read-out: residual activity
T3 construct: GST or His (not specified per kinase); purchased ProQinase (panel service); host or cells: Sf9 insect cells or E. coli
T3 sequence (P00533 25-1210 L861Q): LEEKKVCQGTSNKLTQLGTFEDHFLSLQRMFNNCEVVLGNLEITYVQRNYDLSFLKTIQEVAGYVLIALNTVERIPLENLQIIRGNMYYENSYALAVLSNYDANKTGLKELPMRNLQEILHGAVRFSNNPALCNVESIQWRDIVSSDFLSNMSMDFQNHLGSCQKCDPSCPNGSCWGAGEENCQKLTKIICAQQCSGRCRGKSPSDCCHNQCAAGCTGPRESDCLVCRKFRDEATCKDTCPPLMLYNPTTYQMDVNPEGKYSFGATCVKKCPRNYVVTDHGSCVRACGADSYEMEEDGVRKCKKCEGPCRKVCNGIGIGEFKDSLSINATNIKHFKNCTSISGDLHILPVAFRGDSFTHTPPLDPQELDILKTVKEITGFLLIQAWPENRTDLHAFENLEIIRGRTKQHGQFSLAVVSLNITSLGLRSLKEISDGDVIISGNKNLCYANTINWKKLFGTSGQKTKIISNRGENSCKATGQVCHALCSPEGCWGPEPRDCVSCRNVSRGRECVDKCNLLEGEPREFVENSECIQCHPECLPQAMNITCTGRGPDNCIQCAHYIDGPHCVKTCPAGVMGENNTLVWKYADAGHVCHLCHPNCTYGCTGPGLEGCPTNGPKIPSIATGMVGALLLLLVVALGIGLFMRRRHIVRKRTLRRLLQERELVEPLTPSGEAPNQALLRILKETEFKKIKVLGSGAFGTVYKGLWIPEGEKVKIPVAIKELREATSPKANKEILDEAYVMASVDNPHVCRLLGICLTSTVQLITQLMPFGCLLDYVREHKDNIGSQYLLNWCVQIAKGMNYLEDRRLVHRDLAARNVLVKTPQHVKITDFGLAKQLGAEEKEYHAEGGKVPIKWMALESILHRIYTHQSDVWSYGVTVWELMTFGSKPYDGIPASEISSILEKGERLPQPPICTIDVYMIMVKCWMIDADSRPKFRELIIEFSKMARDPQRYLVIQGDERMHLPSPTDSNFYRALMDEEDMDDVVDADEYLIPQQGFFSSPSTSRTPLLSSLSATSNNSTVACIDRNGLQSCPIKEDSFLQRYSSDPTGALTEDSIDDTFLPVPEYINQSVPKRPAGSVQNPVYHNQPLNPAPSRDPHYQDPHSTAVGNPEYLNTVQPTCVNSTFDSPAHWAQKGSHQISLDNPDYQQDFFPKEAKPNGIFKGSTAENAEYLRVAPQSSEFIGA
Procedure: as §1, §2, §3, §4, §5, §6, §7, §8, §9

[4] = system: UACC903; assay: MTT proliferation assay, single agent; assay type: cell-based; details: Homo sapiens, UACC-903, Melanoma, BRAF V600E, 72 h, mean of several independent experiments

remaining activity at 0.5 µM ([1]; 0.5 µM test compound): 57%
remaining activity at 10 µM ([1]; 10 µM test compound): 25%
remaining activity at 0.5 µM ([2]; 0.5 µM test compound): 10%
remaining activity at 10 µM ([2]; 10 µM test compound): 4%
remaining activity at 0.5 µM ([3]; 0.5 µM test compound): 36%
remaining activity at 10 µM ([3]; 10 µM test compound): 8%
Structure (SMILES): Cn1c(=O)c(-c2c(Cl)cccc2Cl)cc2c(N)nc(Nc3ccccc3)nc21 [Compound (1), 4-amino-6-(2,6-dichlorophenyl)-8-methyl-2-(phenylamino)-pyrido[2,3-d]pyrimidin-7(8H)-one]
IC50 [4]: 3.35 µM
